What all share (format): in vivo, rat (Sprague-Dawley)
In one experiment the test system is Nrf2. Briefly: Nrf2 mRNA level in LECs by real-time PCR after 6 months of supplementation. As to conditions: FIG. 2. The procedure:
Ten-day-old suckling rats (Sprague-Dawley, SD) were maintained under the barrier conditions in a temperature-controlled environment and fed a commercial mouse chow. All rat pups received a single subcutaneous injection of sodium selenite (20 μmol/kg body weight) on postpartum day 11. The opacity distribution (by surface plot and plot profile) of the rats' lenses were determined from the captured images by ImageJ analysis software after feeding 7 days. Testing opacity distribution aimed to show whether the formation of age-related lens degeneration is successful. The rats were then injected of sodium selenite every two weeks. And then these induced successfully rats were fed a commercial mouse chow for 15 months if succeeding. […]
Nrf2 dependent antioxidant protection system plays a crucial role in scavenging ROS generated during various biochemical reactions. […] Real-time PCR was measured and performed with the following primers: Nrf2 forward 5′-[…]-3′. RNA samples were reverse-transcribed to cDNA and subjected to quantitative PCR, performed with a Light Cycler 96 Real-Time PCR System using the AceQ qPCR SYBR Green Master Mix. […]
Background: Real-time PCR tracks product formation cycle by cycle.

In the next experiment the test system is rats' lenses (opacity). The experiment can be described thus: Opacity distribution of lenses in sodium selenite-induced aged rats (ImageJ). As to conditions: 2 or 10 mg/kg/d by gavage once daily for 6 months, vs non-supplement group. As for the experimental part:
Ten-day-old suckling rats (Sprague-Dawley, SD) were maintained under the barrier conditions in a temperature-controlled environment and fed a commercial mouse chow. All rat pups received a single subcutaneous injection of sodium selenite (20 μmol/kg body weight) on postpartum day 11. The opacity distribution (by surface plot and plot profile) of the rats' lenses were determined from the captured images by ImageJ analysis software after feeding 7 days. Testing opacity distribution aimed to show whether the formation of age-related lens degeneration is successful. The rats were then injected of sodium selenite every two weeks. And then these induced successfully rats were fed a commercial mouse chow for 15 months if succeeding. Then these induced successfully rats were randomly divided into three groups: (1) non-supplement group (Group 1, Con, n=10); (2) L-ergothioncine supplement group with low dosage (Group 2, L-ergothioneine, 2 mg/kg/d, n=10); (3) L-ergothioncine supplement group with high dosage (Group 3, L-ergothioneine, 10 mg/kg/d, n=10). All rats were administered L-ergothioneine for once daily by gavage in normal saline solution for 6 months. The opacity distribution (by surface plot and plot profile) of the rats' lenses were observed from the captured images by ImageJ analysis software at the end of this study.

The test system of experiment [1] is intracellular chronic reactive oxygen species (ROS) in lens epithelial cells (LEC). Briefly: Cytosolic ROS level in isolated rat lenses (H2-DCFH-DA staining) after 6 months of supplementation. As to conditions: FIG. 1. The procedure:
Ten-day-old suckling rats (Sprague-Dawley, SD) were maintained under the barrier conditions in a temperature-controlled environment and fed a commercial mouse chow. All rat pups received a single subcutaneous injection of sodium selenite (20 μmol/kg body weight) on postpartum day 11. The opacity distribution (by surface plot and plot profile) of the rats' lenses were determined from the captured images by ImageJ analysis software after feeding 7 days. Testing opacity distribution aimed to show whether the formation of age-related lens degeneration is successful. The rats were then injected of sodium selenite every two weeks. And then these induced successfully rats were fed a commercial mouse chow for 15 months if succeeding.
Then these induced successfully rats were randomly divided into three groups: (1) non-supplement group (Group 1, Con, n=10); (2) L-ergothioncine supplement group with low dosage (Group 2, L-ergothioneine, 2 mg/kg/d, n=10); (3) L-ergothioncine supplement group with high dosage (Group 3, L-ergothioneine, 10 mg/kg/d, n=10). All rats were administered L-ergothioneine for once daily by gavage in normal saline solution for 6 months. The opacity distribution (by surface plot and plot profile) of the rats' lenses were observed from the captured images by ImageJ analysis software at the end of this study. […]

As to `C[N+](C)(C)[C@@H](Cc1c[nH]c(=S)[nH]1)C(=O)[O-]` [ergothioneine, L-ergothioneine], in the experiment on Nrf2 (high-dose group, 10 mg/kg/d by gavage for 6 months), the “increase of Nrf2 mRNA level in LECs over placebo” value is on record as “around 180%”. In addition, the “increase of Nrf2 mRNA level in LECs compared to placebo” value in the experiment on Nrf2 (low-dose group, 2 mg/kg/d by gavage for 6 months) is reported as roughly 50%. Also, the “opacity of lens (opacity distribution by surface plot and plot profile)” value with rats' lenses (opacity) is on record as “effectively ameliorate or alleviate the opacity of lens”. Further, in experiment [1] (10 mg/kg/d vs 2 mg/kg/d by gavage for 6 months), the “efficacy in ROS scavenging, high-dose group compared to low-dose group” value is “approximately double”. For the same compound, in experiment [1] (2 and 10 mg/kg/d by gavage for 6 months), the “reduction of intracellular chronic ROS levels in LEC compared to the non-supplementation group” value is “more than 25%”.
